Laboratory results taken from patent publication US7538099B1, “Antiprogestin method and kit for reducing side effects associated with low dosage HRT, oral contraception and regulating menses” (Eastern Virginia Medical School, priority 1992, dated 2009).
Like-named read-outs stand apart in the source and are kept apart here.

Legend:
[1] = test system: ovulation (serum estradiol and progesterone); test: Example I Part II: weekly serum progesterone and estradiol (breakthrough ovulation, endogenous estrogen biosynthesis); assay type: in vivo, Macaca mulatta; conditions: continuous ultra low dose regimen plus intermittent RU 486; almost unvarying
Description: In Part II, 30 of these primates were randomly assigned to five treatment groups of six each: (1) the oral contraceptive medication employed in Part I was continued (21+7 day regimen) for 6 months; (2) continuous (no “pill-free” interval) daily estrogen-progestin medication, with combined single day oral administration of an antiprogestin (RU 486) on treatment days 30, 60, 90, 120, 150, and 180; (3) same as group 2, except that the progesterone antagonist was given only on days 60, 120, and 180; (4) same as group 2, except that RU 486 was given only on days 90 and 180; and (5) 180 days of continuous estrogen-progestin daily therapy, but without any antiprogestin treatment. Daily monitoring to detect vaginal blood, as in Part I above, was discontinued at 187 days. Femoral blood was collected once weekly throughout in order to identify potential breakthrough ovulation via progesterone elevations; serum values above 1.0 ng/ml were considered indicative of ovarian luteal function and possible ovulation. Likewise, these same specimens were analyzed for estradiol levels in order to monitor ongoing endogenous estrogen biosynthesis. Two monkeys, in groups 1 and 3, respectively, were dropped from the ongoing protocol, one due to a skin rash and the other because of a thumb infection requiring topical treatment. Neither incident is believed to be related to the hormonal treatments.

[2] = test system: adult female rhesus monkeys; test: Example I Part II: daily vaginal swabs for bleeding, ultra low dose oral contraception with or without intermittent RU 486, 180 days; assay type: in vivo, Macaca mulatta
Description: In Part II, 30 of these primates were randomly assigned to five treatment groups of six each: (1) the oral contraceptive medication employed in Part I was continued (21+7 day regimen) for 6 months; (2) continuous (no “pill-free” interval) daily estrogen-progestin medication, with combined single day oral administration of an antiprogestin (RU 486) on treatment days 30, 60, 90, 120, 150, and 180; (3) same as group 2, except that the progesterone antagonist was given only on days 60, 120, and 180; (4) same as group 2, except that RU 486 was given only on days 90 and 180; and (5) 180 days of continuous estrogen-progestin daily therapy, but without any antiprogestin treatment. Daily monitoring to detect vaginal blood, as in Part I above, was discontinued at 187 days. Femoral blood was collected once weekly throughout in order to identify potential breakthrough ovulation via progesterone elevations; serum values above 1.0 ng/ml were considered indicative of ovarian luteal function and possible ovulation. Likewise, these same specimens were analyzed for estradiol levels in order to monitor ongoing endogenous estrogen biosynthesis. […]
Data derived from Part II of the study was listed by treatment group with the profiles of endometrial bleeding through six treatment cycles to 180 days. Mean (+SEM) number of days for breakthrough bleeding or menses was calculated by dividing the total number of incidents recorded (per treatment cycle in the case of group 1 or 30 days intervals for groups 2 to 5) by the number of individuals observed in the group. In the tabulation of data, menses (withdrawal or induced bleeding at expected intervals) was scored for vaginal blood detected within the “pill free” interval for group 1 or within seven days after the intermittent administration of RU 486 during continuous ultra low dose oral contraception (groups 2 to 4). Similarly, failure to observe vaginal bleeding during these times of expected menses, either withdrawal of the oral contraceptive medication or soon after giving the progesterone antagonist, was scored as withdrawal amenorrhea.

[3] = Example II: serum hormone concentrations from subcutaneous capsules; assay type: in vivo, Macaca fascicularis
Description: (§1) Twenty previously ovariectomized cynomolgus monkeys (Macaca fascicularis) have implanted for 281 days a single estradiol-containing subcutaneous capsule. Estradiol release from this capsule results in serum estradiol concentrations of approximately 75 pg/ml. A subcutaneous progesterone capsule is implanted on day 191 and remains in place until day 281. Progesterone release from this capsule results in serum progesterone concentrations of approximately 4 ng/ml. The study takes place in the animal research facilities of the Eastern Virginia Medical School as described in Example I.

[4] = test system: ovariectomized cynomolgus monkeys; test: Example III: vaginal bleeding in ovariectomized monkeys on estradiol and low-dose progesterone implants, onapristone 40 mg/kg im; assay type: in vivo; conditions: for incidence of breakthrough bleeding: 40 mg/kg im, estradiol and low-dose progesterone replacement
Description: (§2) Twenty ovariectomized cynomolgus monkeys were implanted subcutaneously with an estradiol-containing silastic capsule (3 cm length).
The study was undertaken in two phases.
(§3) All monkeys have reached at least day 272. The estradiol implant will remain in place to day 301. […] A smaller progesterone implant (0.5 cm) will be in place from day 210 to 294. This implant is intended to produce a serum progesterone concentration of approximately 0.7 ng/ml. The two experimental groups (M=10/group) were as follows: • Group 1 Onapristone vehicle (saline) on days 180, 197, 240, and 270 • Group 2 Onapristone […] (40 mg/kg, im) on days 180, 197, 240, and 270

[5] = test system: ovariectomized cynomolgus monkeys; test: Example II: vaginal bleeding in ovariectomized monkeys on estradiol and estradiol plus progesterone replacement, intermittent onapristone; assay type: in vivo, Macaca fascicularis
Description: as §1
The purpose of this study was to evaluate break-through bleeding prior to and after onapristone treatment in ovariectomized monkeys receiving estrogen and estrogen plus progesterone replacement therapy. The twenty monkeys were assigned to the following four groups: Group I receives onapristone vehicle (saline) on days 30, 60, 90, 120, 150, 180, 210, 240, 270. Group 2 receives 3 mg/kg i.m. onapristone on days 30, 60, 90, 120, 150, 180, 210, 240, 270. Group 3 is treated with 10 mg/kg i.m. onapristone on the same days. Group 4 receives 30 mg/kg i.m. onapristone on the same days. Vaginal swabs are performed daily from day 1 to 281. The primary parameter for evaluation in this study is the occurrence of vaginal bleeding.

[6] = set-up: species or system cynomolgus monkeys; conditions: female, cynomolgus monkey, in vivo, sc
Description: as §2, §3

CC#C[C@]1(O)CC[C@H]2[C@@H]3CCC4=CC(=O)CCC4=C3[C@@H](c3ccc(N(C)C)cc3)C[C@@]21C [RU 486]
serum estradiol levels [1]: ~25 pg/mL
duration of menses after RU 486 ([2]; RU 486 50 mg intermittently during continuous ultra low dose oral contraception, P<0.05 versus interrupted pill cycle alone): 3.1 ± 0.8 days
time to induced bleeding after RU 486, all instances ([2]; administered at 30, 60 or 90 day intervals): ≤ 72 h
reduction of overall breakthrough bleeding incidence ([2]; single 50 mg oral RU 486 doses at 30, 60 or 90 day intervals during continuous ultra low dose oral contraception, groups 2 to 4 combined versus group 1, P<0.05): 57%

CC(=O)[C@H]1CC[C@H]2[C@@H]3CCC4=CC(=O)CC[C@]4(C)[C@H]3CC[C@]12C [progesterone]
serum progesterone concentrations ([3]; subcutaneous progesterone capsule, day 191 to 281): approximately 4 ng/ml
BTBs after addition of low-dose progesterone ([4]; on estradiol implant): increase in BTBs

CN(C)c1ccc([C@H]2C[C@]3(C)[C@@H](CC[C@]3(O)CCCO)[C@@H]3CCC4=CC(=O)CCC4=C32)cc1 [Onapristone]
incidence of breakthrough bleeding [4]: reduced the incidence of BTBs
incidence of breakthrough bleeding ([4]; listed as onapristone): reduced the incidence of breakthrough bleeding
days of bleeding that followed the day 197 onapristone treatment ([4]; Group 2, 40 mg/kg): Twelve of the twenty days
monkeys in which bleeding followed the day 197 treatment ([4]; Group 2, 40 mg/kg): four of the ten monkeys
monkeys in which bleeding occurred ([4]; Group 2, 40 mg/kg): seven of the ten monkeys
days of unscheduled vaginal bleeding (breakthrough bleeding) ([4]; Group 2, 40 mg/kg im, controls 33 days): 2 days
days of bleeding that followed the day 240 onapristone treatment ([4]; Group 2, 40 mg/kg, in one monkey): Six of the twenty days
days of vaginal bleeding ([4]; Group 2, 40 mg/kg, out of 800 days of observation): 20 days
withdrawal-bleeding ([4]; monkeys substituted with E2 and low-dose progesterone): induced withdrawal-bleeding
incidence of breakthrough bleeding ([5]; Groups 2-4: 3, 10, 30 mg/kg i.m. every 30 days, estradiol capsule): lowers the incidence of breakthrough bleeding
induction of bleeding by onapristone during estradiol treatment ([5]; Groups 2-4: 3, 10, 30 mg/kg i.m. every 30 days, estradiol capsule only): does not induce bleeding
induction of vaginal bleeding during combined estradiol and progestin treatment ([5]; after progesterone capsule implanted (day 191)): induces vaginal bleeding

C[C@]12CC[C@@H]3c4ccc(O)cc4CC[C@H]3[C@@H]1CC[C@@H]2O [estradiol]
serum estradiol concentrations ([3]; single estradiol-containing subcutaneous capsule): approximately 75 pg/ml
breakthrough bleedings (BTBs) with E2 alone ([4]; ovariectomized monkeys substituted with E2 alone): do not exhibit breakthrough bleedings
serum estradiol concentrations [6]: approximately 75 pg/ml
rate of breakthrough bleeding with progressing duration of estradiol treatment ([5]; Group 1, estradiol capsule, onapristone vehicle): increasing rate of breakthrough bleeding
